Experimental data reported in patent US11945822B2, “Pyrazolo-triazine and/or pyrazolo-pxrimidine derivatives as selective inhibitor of cyclin dependent kinase” (QURIENT CO., LTD., priority 2018, dated 2024).

Target: T1, CDK7/Cyclin H/MNAT1 (Homo sapiens, UniProt P50613)
T1 construct: purchased Invitrogen PR6749B
Test: Enzymatic assay for CDK7 (FRET based LANCE Ultra kinase assay)
Assay type: biochemical
Settings: CDK7 over CDK1
Outline: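 LANCE Ultra TR-FRET kinase assay using a ULight-labeled peptide substrate and a Eu-labeled anti-phospho antibody, with ATP at its Km. Purified CDK/cyclin complex was added to compound after brief centrifugation.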

T1 sequence (P50613 whole entry): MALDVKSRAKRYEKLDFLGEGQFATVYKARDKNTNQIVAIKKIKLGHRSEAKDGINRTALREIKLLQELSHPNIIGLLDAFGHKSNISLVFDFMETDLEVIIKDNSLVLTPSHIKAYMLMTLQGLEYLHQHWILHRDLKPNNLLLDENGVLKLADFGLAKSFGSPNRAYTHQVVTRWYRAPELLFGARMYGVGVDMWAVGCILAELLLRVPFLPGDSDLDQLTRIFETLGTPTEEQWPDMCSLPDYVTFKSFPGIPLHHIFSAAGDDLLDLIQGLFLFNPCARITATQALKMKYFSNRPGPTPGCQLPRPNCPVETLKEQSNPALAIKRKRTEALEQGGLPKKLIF
T1 sequence (P51946 whole entry partner): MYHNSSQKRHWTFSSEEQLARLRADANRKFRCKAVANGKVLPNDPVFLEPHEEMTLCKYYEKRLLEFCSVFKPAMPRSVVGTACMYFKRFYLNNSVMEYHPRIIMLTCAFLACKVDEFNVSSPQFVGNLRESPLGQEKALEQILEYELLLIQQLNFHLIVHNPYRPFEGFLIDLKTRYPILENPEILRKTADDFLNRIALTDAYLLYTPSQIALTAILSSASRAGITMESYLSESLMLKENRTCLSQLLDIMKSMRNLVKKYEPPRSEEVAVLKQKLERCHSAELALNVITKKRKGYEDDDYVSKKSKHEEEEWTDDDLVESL
T1 sequence (P51948 whole entry partner): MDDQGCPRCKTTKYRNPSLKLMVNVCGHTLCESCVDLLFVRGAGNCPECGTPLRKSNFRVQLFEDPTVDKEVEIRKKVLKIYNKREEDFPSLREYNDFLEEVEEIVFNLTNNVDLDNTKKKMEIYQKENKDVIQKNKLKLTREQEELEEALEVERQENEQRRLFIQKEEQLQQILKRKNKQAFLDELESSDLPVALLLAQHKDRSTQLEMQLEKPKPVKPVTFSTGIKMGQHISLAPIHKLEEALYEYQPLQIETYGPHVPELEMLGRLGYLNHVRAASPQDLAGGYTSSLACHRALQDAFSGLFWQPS

Row | CDK1/CDK7: Selectivity of CDK7 inhibition over CDK1 inhibition | SMILES
1 | A (A=greater than 200 fold) | COc1cccc(-n2cccn2)c1CNc1nc(N2CCC(N)CC2)nc2c(C(C)C)cnn12 [Compound 39]
2 | A (A=greater than 200 fold) | CC(C)c1cnn2c(NCc3c(F)cccc3-n3cccn3)nc(N3CCC(N)CC3)nc12 [Compound 42]
3 | A (A=greater than 200 fold) | Cc1cccc(-n2cccn2)c1CNc1nc(N2CCC(N)CC2)nc2c(C(C)C)cnn12 [Compound 43]

Same assay, conditions: CDK7 over CDK2

Row | CDK2/CDK7: Selectivity of CDK7 inhibition over CDK2 inhibition | SMILES
4 | A (A=greater than 200 fold) | COc1cccc(-n2cccn2)c1CNc1nc(N2CCC(N)CC2)nc2c(C(C)C)cnn12 [Compound 39]
5 | A (A=greater than 200 fold) | CC(C)c1cnn2c(NCc3c(F)cccc3-n3cccn3)nc(N3CCC(N)CC3)nc12 [Compound 42]
6 | A (A=greater than 200 fold) | Cc1cccc(-n2cccn2)c1CNc1nc(N2CCC(N)CC2)nc2c(C(C)C)cnn12 [Compound 43]

Same assay, conditions: CDK7 over CDK5

Row | CDK5/CDK7: Selectivity of CDK7 inhibition over CDK5 inhibition | SMILES
7 | A (A=greater than 200 fold) | COc1cccc(-n2cccn2)c1CNc1nc(N2CCC(N)CC2)nc2c(C(C)C)cnn12 [Compound 39]
8 | A (A=greater than 200 fold) | Cc1cccc(-n2cccn2)c1CNc1nc(N2CCC(N)CC2)nc2c(C(C)C)cnn12 [Compound 43]

Row | SMILES | CDK5/CDK7: Selectivity of CDK7 inhibition over CDK5 inhibition
9 | CC(C)c1cnn2c(NCc3c(F)cccc3-n3cccn3)nc(N3CCC(N)CC3)nc12 [Compound 42] | B (B=less than 200 fold, but greater than 20 fold)

Same assay, conditions: read-out: CDK7 enzymatic activity (IC50 range)

Row | IC50 [nM] | SMILES
10 | < 100 | COc1cccc(-n2cccn2)c1CNc1nc(N2CCC(N)CC2)nc2c(C(C)C)cnn12 [Compound 39]
11 | < 100 | CC(C)c1cnn2c(NCc3c(F)cccc3-n3cccn3)nc(N3CCC(N)CC3)nc12 [Compound 42]
12 | < 100 | Cc1cccc(-n2cccn2)c1CNc1nc(N2CCC(N)CC2)nc2c(C(C)C)cnn12 [Compound 43]

Target: T2, CDK2/Cyclin A (Homo sapiens, UniProt P24941)
T2 construct: purchased Invitrogen PV6290
Test: Enzymatic assay for CDK2 (FRET based LANCE Ultra kinase assay)
Assay type: biochemical
Settings: read-out: CDK2 enzymatic activity (IC50 range)
Outline: (§1)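 TR-FRET (LANCE Ultra) kinase assay at ATP Km, ULight-MBP peptide substrate (68 nM), 8-dose 4-fold compound series in DMSO. Enzymes: […]; 60 min at 23° C., stopped with EDTA plus Eu-anti-phospho-MBP antibody, read 665/615 nm after 60 min.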

Row | IC50 [nM] | SMILES
13 | > 1000 | COc1cccc(-n2cccn2)c1CNc1nc(N2CCC(N)CC2)nc2c(C(C)C)cnn12 [Compound 39]
14 | 100 to 1000 | CC(C)c1cnn2c(NCc3c(F)cccc3-n3cccn3)nc(N3CCC(N)CC3)nc12 [Compound 42]
15 | > 1000 | Cc1cccc(-n2cccn2)c1CNc1nc(N2CCC(N)CC2)nc2c(C(C)C)cnn12 [Compound 43]

Target: T3, CDK5/p25 (Homo sapiens, UniProt Q00535)
T3 construct: purchased Invitrogen PR8543B
Test: Enzymatic assay for CDK5 (FRET based LANCE Ultra kinase assay)
Assay type: biochemical
Settings: read-out: CDK5 enzymatic activity (IC50 range)
Outline: as §1

T3 sequence (Q00535 whole entry): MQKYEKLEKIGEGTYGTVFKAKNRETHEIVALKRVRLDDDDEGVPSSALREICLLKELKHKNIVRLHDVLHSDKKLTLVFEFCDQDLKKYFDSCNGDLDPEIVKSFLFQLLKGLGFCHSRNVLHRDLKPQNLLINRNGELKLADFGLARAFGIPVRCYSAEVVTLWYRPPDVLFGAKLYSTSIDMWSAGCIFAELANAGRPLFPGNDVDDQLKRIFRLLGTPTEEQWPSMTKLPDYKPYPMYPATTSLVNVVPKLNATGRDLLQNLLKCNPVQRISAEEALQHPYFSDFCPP
T3 sequence (Q15078 99-307 partner limits assumed): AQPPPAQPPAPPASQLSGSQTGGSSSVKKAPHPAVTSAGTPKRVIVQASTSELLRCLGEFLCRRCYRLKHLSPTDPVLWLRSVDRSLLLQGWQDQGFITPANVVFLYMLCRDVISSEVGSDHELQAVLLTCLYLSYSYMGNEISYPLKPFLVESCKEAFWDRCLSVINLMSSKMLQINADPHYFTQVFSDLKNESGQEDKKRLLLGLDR

Row | IC50 [nM] | SMILES
16 | > 1000 | COc1cccc(-n2cccn2)c1CNc1nc(N2CCC(N)CC2)nc2c(C(C)C)cnn12 [Compound 39]
17 | 100 to 1000 | CC(C)c1cnn2c(NCc3c(F)cccc3-n3cccn3)nc(N3CCC(N)CC3)nc12 [Compound 42]
18 | > 1000 | Cc1cccc(-n2cccn2)c1CNc1nc(N2CCC(N)CC2)nc2c(C(C)C)cnn12 [Compound 43]

Test system: MOLT-4
Test: Cellular MOLT-4 viability assay (CellTiter-Glo, 72 hours)
Assay type: cell-based
Settings: Homo sapiens, MOLT4 viability assay
Outline: (§2)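 Cells were plated at line-specific densities and exposed to compound for 72 hours at 37 °C, 5% CO2, with DMSO-only wells as control (final DMSO below 0.1%). Viability was measured by CellTiter-Glo luminescence in duplicate.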

Row | IC50 [nM] | SMILES
19 | > 10000 | COc1cccc(-n2cccn2)c1CNc1nc(N2CCC(N)CC2)nc2c(C(C)C)cnn12 [Compound 39]
20 | 1000 to 10000 | CC(C)c1cnn2c(NCc3c(F)cccc3-n3cccn3)nc(N3CCC(N)CC3)nc12 [Compound 42]
21 | 1000 to 10000 | Cc1cccc(-n2cccn2)c1CNc1nc(N2CCC(N)CC2)nc2c(C(C)C)cnn12 [Compound 43]

Test system: MM.1S
Test: Cellular MM.1S viability assay (CellTiter-Glo, 72 hours)
Assay type: cell-based
Settings: Homo sapiens, MM1.S
Outline: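 Cells seeded at 1×10^4/well (MM.1S), 5×10^3 (OVCAR-3) or 1×10^3 (A2780), grown in RPMI-1640 with 10% FBS. After 24 h, compound added at 0.0015–10 uM, final DMSO below 0.1%, for 72 h at 37° C. Viability read by CellTiter-Glo luminescence in duplicate, with curve fitting.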

Row | IC50 [nM] | SMILES
22 | 1000 to 10000 | COc1cccc(-n2cccn2)c1CNc1nc(N2CCC(N)CC2)nc2c(C(C)C)cnn12 [Compound 39]
23 | ≤ 1000 | CC(C)c1cnn2c(NCc3c(F)cccc3-n3cccn3)nc(N3CCC(N)CC3)nc12 [Compound 42]
24 | 1000 to 10000 | Cc1cccc(-n2cccn2)c1CNc1nc(N2CCC(N)CC2)nc2c(C(C)C)cnn12 [Compound 43]

Target: T4, CDK1/Cyclin B (Homo sapiens, UniProt P06493)
T4 construct: purchased Invitrogen PR4768C
Test: Enzymatic assay for CDK1 (FRET based LANCE Ultra kinase assay)
Assay type: biochemical
Settings: read-out: CDK1 enzymatic activity (IC50 range)
Outline: as §1

T4 sequence (P06493 whole entry): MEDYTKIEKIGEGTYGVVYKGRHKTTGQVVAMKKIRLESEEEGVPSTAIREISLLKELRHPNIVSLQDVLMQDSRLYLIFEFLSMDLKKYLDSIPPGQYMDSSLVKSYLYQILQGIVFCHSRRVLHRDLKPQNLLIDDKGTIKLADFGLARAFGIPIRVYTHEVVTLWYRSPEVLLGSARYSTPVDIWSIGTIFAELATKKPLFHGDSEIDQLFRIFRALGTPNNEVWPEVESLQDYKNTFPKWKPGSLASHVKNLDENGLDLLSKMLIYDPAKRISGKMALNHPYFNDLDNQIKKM
T4 sequence (P14635 whole entry partner): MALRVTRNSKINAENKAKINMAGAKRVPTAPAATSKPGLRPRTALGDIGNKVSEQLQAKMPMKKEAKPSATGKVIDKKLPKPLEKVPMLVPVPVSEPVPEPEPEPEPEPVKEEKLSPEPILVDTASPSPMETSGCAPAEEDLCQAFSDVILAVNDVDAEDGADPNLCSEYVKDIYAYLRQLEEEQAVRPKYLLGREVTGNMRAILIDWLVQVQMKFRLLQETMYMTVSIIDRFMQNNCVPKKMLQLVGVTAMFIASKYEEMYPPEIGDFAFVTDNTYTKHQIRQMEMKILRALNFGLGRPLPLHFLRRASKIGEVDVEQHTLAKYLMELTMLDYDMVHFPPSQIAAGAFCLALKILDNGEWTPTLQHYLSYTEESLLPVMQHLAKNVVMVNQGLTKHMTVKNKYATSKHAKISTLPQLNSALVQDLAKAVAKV

Row | IC50 [nM] | SMILES
25 | > 1000 | COc1cccc(-n2cccn2)c1CNc1nc(N2CCC(N)CC2)nc2c(C(C)C)cnn12 [Compound 39]
26 | > 1000 | CC(C)c1cnn2c(NCc3c(F)cccc3-n3cccn3)nc(N3CCC(N)CC3)nc12 [Compound 42]
27 | > 1000 | Cc1cccc(-n2cccn2)c1CNc1nc(N2CCC(N)CC2)nc2c(C(C)C)cnn12 [Compound 43]

Test system: HCT116
Test: Cellular HCT116 viability assay (CellTiter-Glo, 72 hours)
Assay type: cell-based
Settings: Homo sapiens, HCT-116
Outline: as §2

Row | IC50 [nM] | SMILES
28 | < 1000 | Cc1cccc(-n2cccn2)c1CNc1nc(N2CCC(N)CC2)nc2c(C(C)C)cnn12 [Compound 43]

Test system: RPMI-8226
Test: Cellular RPMI-8226 viability assay (CellTiter-Glo, 72 hours)
Assay type: cell-based
Settings: Homo sapiens
Outline: as §2

Row | IC50 [nM] | SMILES
29 | 1000 to 10000 | COc1cccc(-n2cccn2)c1CNc1nc(N2CCC(N)CC2)nc2c(C(C)C)cnn12 [Compound 39]
30 | < 1000 | CC(C)c1cnn2c(NCc3c(F)cccc3-n3cccn3)nc(N3CCC(N)CC3)nc12 [Compound 42]
31 | 1000 to 10000 | Cc1cccc(-n2cccn2)c1CNc1nc(N2CCC(N)CC2)nc2c(C(C)C)cnn12 [Compound 43]

Test system: H460
Test: Cellular H460 viability assay (CellTiter-Glo, 72 hours)
Assay type: cell-based
Settings: Homo sapiens, NCI-H460
Outline: as §2

Row | IC50 [nM] | SMILES
32 | 1000 to 10000 | COc1cccc(-n2cccn2)c1CNc1nc(N2CCC(N)CC2)nc2c(C(C)C)cnn12 [Compound 39]
33 | < 1000 | CC(C)c1cnn2c(NCc3c(F)cccc3-n3cccn3)nc(N3CCC(N)CC3)nc12 [Compound 42]
34 | < 1000 | Cc1cccc(-n2cccn2)c1CNc1nc(N2CCC(N)CC2)nc2c(C(C)C)cnn12 [Compound 43]

Test system: MV4-11
Test: Cellular MV4-11 viability assay (CellTiter-Glo, 72 hours)
Assay type: cell-based
Settings: Homo sapiens
Outline: as §2

Row | IC50 [nM] | SMILES
35 | 1000 to 10000 | COc1cccc(-n2cccn2)c1CNc1nc(N2CCC(N)CC2)nc2c(C(C)C)cnn12 [Compound 39]
36 | < 1000 | CC(C)c1cnn2c(NCc3c(F)cccc3-n3cccn3)nc(N3CCC(N)CC3)nc12 [Compound 42]
37 | < 1000 | Cc1cccc(-n2cccn2)c1CNc1nc(N2CCC(N)CC2)nc2c(C(C)C)cnn12 [Compound 43]
